{"source": "paper PMC8843100", "about": "“Development of newly synthesised quinazolinone-based CDK2 inhibitors with potent efficacy against melanoma” (Journal of Enzyme Inhibition and Medicinal Chemistry, 2022)", "origin": "cited, not measured here", "system": "cyclin-dependent kinase2", "set-up": "method as in PMID 11354366", "details": "CDK2; cited from earlier work"}
{"smiles": "CC(C)(C)Nc1nc(C(F)(F)F)nc2ccc(-c3cccc(N)c3)cc12", "note": "[DIN-234325]", "values": [{"measurement": "IC50", "result": "600 ± 100", "unit": "nM"}]}
